Assay results: US6962906B2, “Oligonucleotide analogues, methods of synthesis and methods of use” (Active Motif, priority 2000, dated 2005)
“And” between values parts separate entries of the source, which are not always exact repeats. Equal values may be shown once.

How the values were obtained:
Format in all cases: binding
[1] = test system: Target oligonucleotides (SEQ ID NO:33-36); experiment: Affinity PAGE capture of target DNA and RNA oligonucleotides, detection with ethidium bromide; conditions: electrophoresis at 40° C.
Text: A HypNA-pPNA capture probe with the sequence: (Ch-Tp-Gh-Cp-Ah-Ap-Ah-Gp-Gh-Ap-Ch-Ap-Ch-Cp-Ah-Tp)-dG was synthesized coupled to a 5′ acrylamide residue as described in Example 19. The capture probe was co-polymerized with acrylamide as described in Example 18 in slots of an acrylamide gel as described in Rehman et al. (Nucleic Acids Research 27: 649-655 (1999)). Target oligonucleotides having the sequence: • d([…]) (SEQ ID NO:33)—complementary • d([…]) (SEQ ID NO:34)—mismatched • r([…]) (SEQ ID NO:35)—complementary • r([…]) (SEQ ID NO:36)—mismatched were electrophoresed through lanes of the gel at 40° C.
Following electrophoresis, the gel was stained with ethidium bromide and photographed under UV illumination.

16 mer poly A RNA = experiment: Melting curve analysis of poly T probes hybridized to poly A RNA; conditions: 20 mM Tris, pH 7.5, 100 mM NaCl, 10 mM MgCl2; RNA to PNA oligomer 1:2 for PNA analogues
Text: (§1) In this experiment we compared hybridized complexes of DNA/DNA, DNA/PNAs, RNA/DNA and PNA/PNAs, for the stability of the complex formed. Poly A DNA oligomers, poly T DNA oligomers, poly A RNA oligomers, and poly T RNA oligomers were synthesized by solid phase synthesis. PNA oligonucleotide analogues were synthesized by solid phase synthesis using methods disclosed herein. The classical PNA Poly T oligomer consisted of a PNA having a N-(2-aminoethyl)glycine backbone. […] The 1:2 Poly T PNA consisted of: biotin-linker-(HypNA-pPNA-pPNA)5-dT. The 1:3 Poly T PNA consisted of: biotin-linker-[(HypNA-pPNA)-(pPNA-pPNA)]4-dT.
(§2) To hybridize DNA/DNA and DNA/RNA oligomers, equal amounts of oligonucleotide were mixed in 20 mM Tris, pH 7.5, 100 mM NaCl, 10 mM MgCl2, incubated at 90° C. for 3 minutes and left to cool gradually to room temperature overnight. Samples were then heated at a rate of 1° C. per minute from 20° C. to 100° C., using a spectrophotometer linked to a thermal control unit. Changes in A260 were recorded and a Tm value was calculated for each complex.
(§3) To hybridize PNA oligonucleotide analogues to DNA and RNA oligomers, the ratio of DNA (or RNA) oligomer to PNA oligomer was 1:2. This 1:2 ratio was used to promote the formation of a triplex structure, with 2 PNA oligomers binding to each DNA oligomer.
(§4) These samples were hybridized and treated in a identical manner to the DNA/DNA and DNA/RNA complexes to obtain Tm values.

16 mer poly A DNA = experiment: Melting curve analysis of poly T probes hybridized to poly A DNA; conditions: 20 mM Tris, pH 7.5, 100 mM NaCl, 10 mM MgCl2; DNA to PNA oligomer 1:2 for PNA analogues
Text: as §1, §2, §3, §4

## (Ch-Tp-Gh-Cp-Ah-Ap-Ah-Gp-Gh-Ap-Ch-Ap-Ch-Cp-Ah-Tp)-dG [capture HypNA-pPNA probe]
[1]; complementary DNA and RNA targets, lanes 1, 3, and 5
  capture of complementary target oligonucleotides in the gel (ethidium bromide fluorescence): ethidium-stained fluorescent hybrids captured by the gel layer
[1]; single nucleobase mismatched DNA and RNA targets, lanes 2, 4, and 6
  capture of mismatched target oligonucleotides in the gel (ethidium bromide fluorescence): did not result in the capture of a target

## biotin-linker-(HypNA-pPNA)7-dT [1:1 Poly T PNA-analog]
16 mer poly A RNA
  Target: 16 mer poly A RNA Tm, ° C.: 73.0 °C and 72.7 °C
16 mer poly A DNA
  Target: 16 mer poly A DNA Tm, ° C.: 81.1 °C and 81.9 °C

## biotin-linker-[(HypNA-pPNA)-(pPNA-pPNA)]4-dT [1:3 Poly T PNA-analog]
16 mer poly A RNA
  Target: 16 mer poly A RNA Tm, ° C.: 48.9 °C and 47.2 °C
16 mer poly A DNA
  Target: 16 mer poly A DNA Tm, ° C.: 60.9 °C and 60.8 °C

## biotin-linker-(HypNA-pPNA-pPNA)5-dT [1:2 Poly T PNA-analog]
16 mer poly A RNA
  Target: 16 mer poly A RNA Tm, ° C.: 66.1 °C and 66.0 °C
16 mer poly A DNA
  Target: 16 mer poly A DNA Tm, ° C.: 74.4 °C and 74.0 °C
